Measurements reported in US9200082B2, “Methods and compositions involving fibrillizing polypeptides for nanofibers” (The University of Chicago, priority 2013, dated 2015).

How the values were obtained:
[1] = test system: Q11 microgels; assay: Q11 microgel fluorescence microscopy
Experimental: Lyophilized Q11 was dissolved in deionized water at a final concentration of 10 mM by vortexing for 5 min. Aqueous Q11 solutions were diluted 10-fold with 1×PBS containing GFP (Vector Labs cat# MB-0752), βTmutant-GFP, or one or more βTail fusion proteins at a total protein concentration between 0.25-1.5 μM, or tryptophan-terminated βTail (W-βTail) at a concentration between 10-100 μM. These solutions were then incubated under static conditions for nanofiber assembly, or on a LabNet Rocker 35 rocker table (speed setting 4) (New Jersey) to induce microgel formation.
Q11 microgel fluorescence was analyzed using a Zeiss Axioscope inverted epifluorescent microscope. Dapi filters were used to visualize βTail-GFPuv; FITC filters were used to visualize βTail-eGFP; and TRITC filters were used to visualize βTail-dsRED. Fluorescence emission of any protein with the inappropriate filter (e.g. βTail-GFPuv with FITC) was negligible (FIG. 5). Due to differences in the quantum efficiency of each protein, exposure time was adjusted until the grayscale image intensity of microgels containing 0.33 μM βTail-GFP, βTail-eGFP, or βTail-dsRED alone was similar (e.g. 0.75 sec for βTail-GFP, 1.5 sec for βTail-eGFP, and 2.5 sec for βTail-dsRED). […]

[2] = test system: C57BL/6 mice; assay: Immunization, anti-GFP Ig isotyping ELISA; format: in vivo; conditions: after primary and booster immunizations, serum week 7
Experimental: Q11 microgels bearing βTail-GFP or βTail-cut were prepared as described above, except the materials were incubated at 4 deg C., rather than room temperature. GFP content in the microgels was analyzed fluorimetrically as described above, and the concentration of GFP in the microgels was used as the basis for βTail-GFP dose in the PBS group. Similarly, cutinase content in the microgels was analyzed with the μABCA assay kit (Pierce), according to the manufacturer's instructions, and βTail-cut dose in the microgels was used as the basis for βTail-cut dose in PBS group. Endotoxin content of all vaccines was analyzed with the Limulus Amoebocyte Lysate assay kit (Lonza) according to the manufacturer's instructions immediately before immunization, and all materials were below the upper limit of 1 EU/mL. Female C57BL/6 mice (6-8 weeks old, Taconic Farms, Ind.) were each given two 50 μL subcutaneous injections near the shoulder blades for each primary and booster immunization, similar to previously reported methods (Hudalla 2013). […]
For all isotyping ELISAs, following overnight coating with 1 μg/mL βTmutant-GFP in PBS or PBS, all plates were washed 3 times with 0.5% Tween-20 in PBS. […] Absorbance was then measured at 450 nm with a SpectraMax M5 plate reader.

With “βTail-GFP: recombinant fusion of βTail, Gly-Ser linker, GFPuv and His6 expressed in E. coli; SEQ ID NO. 65” the “fluorescence (activity) after integration into Q11 nanofibers” value [1] was “fluorescence was not perturbed when integrated into Q11 nanofibers” and the “serum Ig isotype profile” value [2] was “a more balanced IgM/IgG1 isotype profile”.
